In US20240115549A1, “TREATMENT OF MENTAL DISORDERS” (GH Research Ireland Limited, priority 2022, published 2024):

Key:
[1] = Pharmacokinetics of 5-MeO-DMT and bufotenine after inhalation; type: in vivo, human
[2] = system: Salmonella typhimurium TA98, TA100, TA1535 and TA1537; experiment: Bacterial mutation test, Salmonella typhimurium; type: cell-based; conditions: up to 5000 μg/plate, with and without S-9
Excerpt: These conditions included treatments at concentrations up to […] (the maximum recommended concentration according to current regulatory guidelines), in the absence and in the presence of a rat liver metabolic activation system (S-9).

[3] = LC-MS/MS of 5-MeO-DMT, bufotenine and 5-MIAA in breastmilk, serum and urine of a treated PPD patient; infant dose estimates; conditions: for Breastmilk concentration / Serum concentration / Urine concentration: second PPD patient, LC-MS/MS
[4] = 5 kg infant, three feeds of 250 ml
[5] = 8.5 hrs after last dose, inhaled 5-MeO-DMT
[6] = 24.0 hrs after last dose, inhaled 5-MeO-DMT
[7] = 120.0 hrs after last dose, inhaled 5-MeO-DMT
[8] = timepoint −24.0 hrs (pre-dosing), inhaled 5-MeO-DMT 6 mg then 12 mg

## COc1ccc2[nH]cc(CCN(C)C)c2c1 [5-MeO-DMT]
[1]; 3 hours after inhalation, 6-18 mg
  Detectability in plasma: no longer detectable
[1]; repeat within 1 to 4 hours
  Accumulation upon repeated administration: No accumulation
[2]
  Induction of mutation: did not induce mutation
[3]; [4]
  DID per kg infant weight: 0.0001385 mg/kg/day
  Total exposure of the infant (DID): 0.0006924 mg/day
[3]; after 24 hours
  Detection in breastmilk: did not detect any 5-MeO-DMT
[3]; all subsequent timepoints
  Serum concentration at timepoints after 1 hour: below the lower limit of quantification
[3]; 1.0 hrs after last dose, inhaled 5-MeO-DMT
  Breastmilk concentration: 2167.0 pg/mL
[3]; 2.5 hrs after last dose, inhaled 5-MeO-DMT
  Breastmilk concentration: 560.6 pg/mL
[3]; [5]
  Breastmilk concentration: 42.1 pg/mL
  Urine concentration: BLQ
[3]; [6]
  Breastmilk concentration: BLG
  Urine concentration: BLQ
[3]; [7]
  Breastmilk concentration: BLQ
  Urine concentration: BLQ
[3]; [8]
  Breastmilk concentration: BLQ
  Urine concentration: BLQ
[3]; female, human, serum, inhaled
  concentration at 1 h: 133 µg/mL
[3]; serum, 1.0 hrs after last dose, inhaled 5-MeO-DMT
  Serum concentration: 0.0001329 µg/mL
[3]; serum, 2.5 hrs after last dose, inhaled 5-MeO-DMT
  Serum concentration: BLQ
[3]; serum, 24.0 hrs after last dose, inhaled 5-MeO-DMT
  Serum concentration: BLQ
[3]; serum, 120.0 hrs after last dose, inhaled 5-MeO-DMT
  Serum concentration: BLQ
[3]; serum, timepoint −24.0 hrs (pre-dosing), inhaled 5-MeO-DMT 6 mg then 12 mg
  Serum concentration: BLQ
